Experiment [1] concerns the target Phosphorylase b kinase gamma catalytic chain, skeletal muscle/heart isoform (Homo sapiens) (UniProt Q16816). Put plainly: Selectivity interaction (KinomeScan (DiscoverX)) EUB0000595a PHKG1. As to conditions: at 10 µM.
Experiment [2] addresses Serine/threonine-protein kinase PAK 3 (Homo sapiens) (UniProt O75914). Put plainly: Selectivity interaction (KinomeScan (DiscoverX)) EUB0001619a PAK3. The note with it: at 1 µM.
The target of experiment [3] is Adenosine receptor A1 (Homo sapiens) (UniProt P30542). Put plainly: Selectivity interaction (Eurofins CEREP Diversity Profile (receptors and ion channels)) EUB0000279b ADORA1. As to conditions: at 10 µM.
Chain of Adenosine receptor A1 (Homo sapiens) (P30542 whole entry): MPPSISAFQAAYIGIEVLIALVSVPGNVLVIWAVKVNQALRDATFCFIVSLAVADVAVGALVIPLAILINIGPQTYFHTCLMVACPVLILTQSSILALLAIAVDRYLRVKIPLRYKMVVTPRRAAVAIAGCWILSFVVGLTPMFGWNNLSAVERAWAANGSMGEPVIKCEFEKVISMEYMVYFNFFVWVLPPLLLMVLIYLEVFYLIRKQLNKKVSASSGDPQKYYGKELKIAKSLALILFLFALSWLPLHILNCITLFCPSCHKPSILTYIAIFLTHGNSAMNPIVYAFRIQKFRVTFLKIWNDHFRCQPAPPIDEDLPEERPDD
Experiment [4] deals with Tyrosine-protein kinase Fgr (Homo sapiens) (UniProt P09769). As to conditions: at 10 µM.
Chain of Tyrosine-protein kinase Fgr (Homo sapiens) (P09769 2-529 limits assumed): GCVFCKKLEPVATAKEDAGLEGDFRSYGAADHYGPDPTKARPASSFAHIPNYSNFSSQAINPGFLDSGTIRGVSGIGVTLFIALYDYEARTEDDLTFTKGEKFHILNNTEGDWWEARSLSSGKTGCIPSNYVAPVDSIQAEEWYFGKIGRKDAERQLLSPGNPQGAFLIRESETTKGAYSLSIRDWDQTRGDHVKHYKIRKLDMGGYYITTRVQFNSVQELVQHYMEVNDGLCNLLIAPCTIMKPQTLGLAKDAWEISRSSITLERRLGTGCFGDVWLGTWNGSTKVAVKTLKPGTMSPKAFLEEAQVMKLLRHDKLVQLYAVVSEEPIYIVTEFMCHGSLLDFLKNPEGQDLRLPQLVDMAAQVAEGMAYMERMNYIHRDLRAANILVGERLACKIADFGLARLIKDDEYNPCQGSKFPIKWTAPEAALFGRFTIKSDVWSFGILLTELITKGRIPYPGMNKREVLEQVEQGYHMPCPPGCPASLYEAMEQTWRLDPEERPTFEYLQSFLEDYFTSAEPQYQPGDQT
Experiment [5] deals with T1, Mitogen-activated protein kinase kinase kinase 6 (Homo sapiens) (UniProt O95382).
T1 sequence (whole entry): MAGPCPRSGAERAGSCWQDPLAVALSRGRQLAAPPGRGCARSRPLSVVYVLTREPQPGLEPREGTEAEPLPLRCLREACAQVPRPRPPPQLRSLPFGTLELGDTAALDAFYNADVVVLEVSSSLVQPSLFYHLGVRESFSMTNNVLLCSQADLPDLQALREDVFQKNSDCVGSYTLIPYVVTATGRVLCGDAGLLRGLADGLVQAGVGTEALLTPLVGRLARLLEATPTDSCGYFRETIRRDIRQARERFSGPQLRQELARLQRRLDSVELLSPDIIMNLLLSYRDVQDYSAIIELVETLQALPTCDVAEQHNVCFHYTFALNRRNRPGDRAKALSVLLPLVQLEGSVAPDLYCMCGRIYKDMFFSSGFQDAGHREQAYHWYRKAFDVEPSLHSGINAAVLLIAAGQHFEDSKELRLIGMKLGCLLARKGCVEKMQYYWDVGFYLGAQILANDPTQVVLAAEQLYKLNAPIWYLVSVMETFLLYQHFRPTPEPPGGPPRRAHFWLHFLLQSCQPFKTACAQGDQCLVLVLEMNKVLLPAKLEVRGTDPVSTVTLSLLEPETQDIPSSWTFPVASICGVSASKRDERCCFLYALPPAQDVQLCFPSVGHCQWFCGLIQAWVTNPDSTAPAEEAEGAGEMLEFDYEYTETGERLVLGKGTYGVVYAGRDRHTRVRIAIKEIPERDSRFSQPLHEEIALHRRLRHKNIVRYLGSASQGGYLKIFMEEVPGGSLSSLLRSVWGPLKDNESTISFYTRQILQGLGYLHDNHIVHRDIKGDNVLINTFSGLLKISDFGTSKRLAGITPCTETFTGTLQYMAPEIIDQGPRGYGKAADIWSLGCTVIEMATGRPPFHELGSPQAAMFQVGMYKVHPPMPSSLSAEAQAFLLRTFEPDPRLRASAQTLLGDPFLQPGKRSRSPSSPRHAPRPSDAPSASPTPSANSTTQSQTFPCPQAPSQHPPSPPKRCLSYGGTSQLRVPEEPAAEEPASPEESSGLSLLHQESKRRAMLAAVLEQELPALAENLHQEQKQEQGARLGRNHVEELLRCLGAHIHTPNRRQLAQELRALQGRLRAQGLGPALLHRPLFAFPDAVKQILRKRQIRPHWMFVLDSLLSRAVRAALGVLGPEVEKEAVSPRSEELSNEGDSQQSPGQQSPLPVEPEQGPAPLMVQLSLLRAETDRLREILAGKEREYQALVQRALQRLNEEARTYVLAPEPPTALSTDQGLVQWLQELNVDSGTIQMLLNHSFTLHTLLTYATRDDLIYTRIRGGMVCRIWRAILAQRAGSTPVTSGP
Put plainly: Selectivity interaction (KinomeScan (DiscoverX)) EUB0000607a MAP3K6. As to conditions: at 10 µM.

For experiment [6], the target named is Homeodomain-interacting protein kinase 1 (Homo sapiens, UniProt Q86Z02). Put plainly: Selectivity interaction (SelectScreen profiling (Invitrogen)) EUB0000607a HIPK1. The note with it: at 2 µM.
In experiment [7] the target is T2, Mitogen-activated protein kinase 13 (Homo sapiens) (UniProt O15264).
T2 sequence (whole entry): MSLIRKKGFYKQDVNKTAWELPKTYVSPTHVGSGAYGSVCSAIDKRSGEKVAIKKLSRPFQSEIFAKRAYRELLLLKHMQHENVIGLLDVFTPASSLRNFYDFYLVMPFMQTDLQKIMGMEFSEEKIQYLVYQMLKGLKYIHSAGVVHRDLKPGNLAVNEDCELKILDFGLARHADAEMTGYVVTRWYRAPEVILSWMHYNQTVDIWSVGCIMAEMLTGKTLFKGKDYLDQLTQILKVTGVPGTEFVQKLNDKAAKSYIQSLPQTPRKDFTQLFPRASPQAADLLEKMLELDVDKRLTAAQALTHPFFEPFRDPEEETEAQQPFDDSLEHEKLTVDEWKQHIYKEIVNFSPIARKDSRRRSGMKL
Put plainly: Selectivity interaction (SelectScreen profiling (Invitrogen)) EUB0000607a MAPK13. As to conditions: at 2 µM.

Experiment [8] has as its target G protein-coupled receptor kinase 4 (Homo sapiens) (UniProt P32298). Put plainly: Selectivity interaction (KinomeScan (DiscoverX)) EUB0000045b GRK4.
Experiment [9] has as its target Serine/threonine-protein kinase 16 (Homo sapiens, UniProt O75716). Put plainly: Selectivity interaction (ProQinase) EUB0000171b STK16.
Experiment [10] deals with T3, Dual specificity mitogen-activated protein kinase kinase 6 (Homo sapiens) (UniProt P52564).
T3 sequence (whole entry): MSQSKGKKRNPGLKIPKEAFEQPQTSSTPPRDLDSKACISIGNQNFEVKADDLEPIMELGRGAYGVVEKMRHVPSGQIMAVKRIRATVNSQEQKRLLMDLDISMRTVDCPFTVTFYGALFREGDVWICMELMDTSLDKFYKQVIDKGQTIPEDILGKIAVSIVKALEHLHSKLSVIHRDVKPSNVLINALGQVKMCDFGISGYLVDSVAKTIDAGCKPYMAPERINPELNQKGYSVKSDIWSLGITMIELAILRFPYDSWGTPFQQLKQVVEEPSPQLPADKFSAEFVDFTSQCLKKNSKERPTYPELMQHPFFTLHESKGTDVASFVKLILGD
Put plainly: Selectivity interaction (Ambit KINOMEscan and KiNATiv profiling in Jurkat cells) EUB0000090b MAP2K6. The note with it: at 1 µM. The format is cell-based.

Experiment [11] has as its target Serine/threonine-protein kinase MRCK beta (Homo sapiens) (UniProt Q9Y5S2). Put plainly: Selectivity interaction (KinomeScan (DiscoverX)) EUB0000655a CDC42BPB. The note with it: at 10 µM.
Experiment [12] concerns the target Cyclin-dependent kinase 16 (Homo sapiens) (UniProt Q00536). Put plainly: Selectivity interaction (Kinase panel (KiNativ target engagement assay in Jurkat cells)) EUB0001635a CDK16. As to conditions: Selectivity number of off-targets 0.0, Selectivity number of targets 233.0, Source Knowledge https://www.sciencedirect.com/science/article/pii/S2451945619300674?via%3Dihub, at 1 µM. In kind it is cell-based.

In experiment [13] the target is DNA-dependent protein kinase catalytic subunit (Homo sapiens) (UniProt P78527). Put plainly: Selectivity interaction (Kinase panel (KiNativ target engagement assay in Jurkat cells)) EUB0001635a PRKDC. In kind it is cell-based. As to conditions: Selectivity number of off-targets 0.0, Selectivity number of targets 233.0, Source Knowledge https://www.sciencedirect.com/science/article/pii/S2451945619300674?via%3Dihub, at 1 µM.

The structures appear in SMILES notation.

Chain of Serine/threonine-protein kinase 16 (O75716 whole entry): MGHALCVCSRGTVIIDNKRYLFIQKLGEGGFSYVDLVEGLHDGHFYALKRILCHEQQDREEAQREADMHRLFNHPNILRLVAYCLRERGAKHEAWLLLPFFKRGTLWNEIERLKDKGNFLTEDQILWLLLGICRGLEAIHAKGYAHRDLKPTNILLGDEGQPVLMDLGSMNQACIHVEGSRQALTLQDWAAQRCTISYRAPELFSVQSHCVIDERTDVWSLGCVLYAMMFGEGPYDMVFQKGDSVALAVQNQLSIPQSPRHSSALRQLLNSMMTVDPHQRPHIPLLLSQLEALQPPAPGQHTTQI
Chain of G protein-coupled receptor kinase 4 (Homo sapiens) (P32298 whole entry, looked up): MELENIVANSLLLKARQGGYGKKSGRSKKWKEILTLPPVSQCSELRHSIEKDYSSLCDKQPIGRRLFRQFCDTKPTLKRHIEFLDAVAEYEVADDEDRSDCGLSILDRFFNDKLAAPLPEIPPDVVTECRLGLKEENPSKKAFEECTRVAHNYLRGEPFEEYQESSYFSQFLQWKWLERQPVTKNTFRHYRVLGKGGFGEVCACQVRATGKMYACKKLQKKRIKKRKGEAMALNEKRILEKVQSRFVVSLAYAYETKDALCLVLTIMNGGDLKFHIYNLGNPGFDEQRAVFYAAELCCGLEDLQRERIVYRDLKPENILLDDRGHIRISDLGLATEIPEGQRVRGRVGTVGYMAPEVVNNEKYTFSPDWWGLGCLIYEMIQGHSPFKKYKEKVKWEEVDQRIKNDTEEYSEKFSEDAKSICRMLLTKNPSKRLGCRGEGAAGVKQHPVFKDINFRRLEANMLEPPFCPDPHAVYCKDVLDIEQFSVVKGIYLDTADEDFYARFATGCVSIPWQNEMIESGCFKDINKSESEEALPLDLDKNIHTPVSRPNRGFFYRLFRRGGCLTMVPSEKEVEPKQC
Chain of Cyclin-dependent kinase 16 (Homo sapiens) (Q00536 whole entry): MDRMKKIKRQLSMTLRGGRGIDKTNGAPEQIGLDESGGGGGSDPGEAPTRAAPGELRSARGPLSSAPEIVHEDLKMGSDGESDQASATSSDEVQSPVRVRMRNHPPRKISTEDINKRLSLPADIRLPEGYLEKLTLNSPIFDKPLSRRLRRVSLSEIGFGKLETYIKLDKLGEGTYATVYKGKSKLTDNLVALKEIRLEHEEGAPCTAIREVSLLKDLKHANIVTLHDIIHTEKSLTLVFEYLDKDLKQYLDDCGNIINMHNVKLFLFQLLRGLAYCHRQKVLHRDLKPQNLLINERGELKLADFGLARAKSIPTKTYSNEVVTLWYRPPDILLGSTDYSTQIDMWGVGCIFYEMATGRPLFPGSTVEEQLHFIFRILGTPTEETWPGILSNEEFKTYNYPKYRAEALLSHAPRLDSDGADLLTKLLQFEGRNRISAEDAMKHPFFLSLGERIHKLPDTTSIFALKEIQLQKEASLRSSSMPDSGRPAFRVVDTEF
Chain of Serine/threonine-protein kinase PAK 3 (Homo sapiens) (O75914 whole entry, looked up): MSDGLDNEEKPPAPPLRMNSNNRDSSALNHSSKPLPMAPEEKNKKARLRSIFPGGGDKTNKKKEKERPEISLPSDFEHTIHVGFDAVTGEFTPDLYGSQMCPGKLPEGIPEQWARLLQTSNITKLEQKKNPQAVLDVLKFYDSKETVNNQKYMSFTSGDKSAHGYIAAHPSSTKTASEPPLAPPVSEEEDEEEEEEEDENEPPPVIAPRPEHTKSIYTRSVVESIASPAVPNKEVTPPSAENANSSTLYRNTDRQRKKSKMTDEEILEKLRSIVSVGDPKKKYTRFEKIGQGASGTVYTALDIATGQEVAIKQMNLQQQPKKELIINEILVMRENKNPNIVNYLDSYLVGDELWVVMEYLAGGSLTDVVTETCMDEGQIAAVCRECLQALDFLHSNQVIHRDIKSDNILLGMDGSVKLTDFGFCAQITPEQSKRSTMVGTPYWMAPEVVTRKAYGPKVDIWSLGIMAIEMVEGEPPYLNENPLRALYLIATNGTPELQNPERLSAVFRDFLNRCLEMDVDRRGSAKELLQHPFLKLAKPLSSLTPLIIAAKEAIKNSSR
Chain of Phosphorylase b kinase gamma catalytic chain, skeletal muscle/heart isoform (Homo sapiens) (Q16816 whole entry, looked up, canonical isoform): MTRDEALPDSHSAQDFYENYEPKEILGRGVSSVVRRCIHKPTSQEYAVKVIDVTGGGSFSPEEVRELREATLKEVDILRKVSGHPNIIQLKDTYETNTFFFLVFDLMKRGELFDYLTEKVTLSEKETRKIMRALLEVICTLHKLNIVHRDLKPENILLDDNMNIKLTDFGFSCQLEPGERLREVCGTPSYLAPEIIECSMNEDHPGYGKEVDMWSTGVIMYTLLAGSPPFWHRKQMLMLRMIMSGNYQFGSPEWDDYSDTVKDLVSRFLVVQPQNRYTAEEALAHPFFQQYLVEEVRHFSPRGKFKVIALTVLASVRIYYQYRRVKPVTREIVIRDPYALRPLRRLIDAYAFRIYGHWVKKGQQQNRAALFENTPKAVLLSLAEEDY
Chain of Serine/threonine-protein kinase MRCK beta (Homo sapiens) (Q9Y5S2 whole entry): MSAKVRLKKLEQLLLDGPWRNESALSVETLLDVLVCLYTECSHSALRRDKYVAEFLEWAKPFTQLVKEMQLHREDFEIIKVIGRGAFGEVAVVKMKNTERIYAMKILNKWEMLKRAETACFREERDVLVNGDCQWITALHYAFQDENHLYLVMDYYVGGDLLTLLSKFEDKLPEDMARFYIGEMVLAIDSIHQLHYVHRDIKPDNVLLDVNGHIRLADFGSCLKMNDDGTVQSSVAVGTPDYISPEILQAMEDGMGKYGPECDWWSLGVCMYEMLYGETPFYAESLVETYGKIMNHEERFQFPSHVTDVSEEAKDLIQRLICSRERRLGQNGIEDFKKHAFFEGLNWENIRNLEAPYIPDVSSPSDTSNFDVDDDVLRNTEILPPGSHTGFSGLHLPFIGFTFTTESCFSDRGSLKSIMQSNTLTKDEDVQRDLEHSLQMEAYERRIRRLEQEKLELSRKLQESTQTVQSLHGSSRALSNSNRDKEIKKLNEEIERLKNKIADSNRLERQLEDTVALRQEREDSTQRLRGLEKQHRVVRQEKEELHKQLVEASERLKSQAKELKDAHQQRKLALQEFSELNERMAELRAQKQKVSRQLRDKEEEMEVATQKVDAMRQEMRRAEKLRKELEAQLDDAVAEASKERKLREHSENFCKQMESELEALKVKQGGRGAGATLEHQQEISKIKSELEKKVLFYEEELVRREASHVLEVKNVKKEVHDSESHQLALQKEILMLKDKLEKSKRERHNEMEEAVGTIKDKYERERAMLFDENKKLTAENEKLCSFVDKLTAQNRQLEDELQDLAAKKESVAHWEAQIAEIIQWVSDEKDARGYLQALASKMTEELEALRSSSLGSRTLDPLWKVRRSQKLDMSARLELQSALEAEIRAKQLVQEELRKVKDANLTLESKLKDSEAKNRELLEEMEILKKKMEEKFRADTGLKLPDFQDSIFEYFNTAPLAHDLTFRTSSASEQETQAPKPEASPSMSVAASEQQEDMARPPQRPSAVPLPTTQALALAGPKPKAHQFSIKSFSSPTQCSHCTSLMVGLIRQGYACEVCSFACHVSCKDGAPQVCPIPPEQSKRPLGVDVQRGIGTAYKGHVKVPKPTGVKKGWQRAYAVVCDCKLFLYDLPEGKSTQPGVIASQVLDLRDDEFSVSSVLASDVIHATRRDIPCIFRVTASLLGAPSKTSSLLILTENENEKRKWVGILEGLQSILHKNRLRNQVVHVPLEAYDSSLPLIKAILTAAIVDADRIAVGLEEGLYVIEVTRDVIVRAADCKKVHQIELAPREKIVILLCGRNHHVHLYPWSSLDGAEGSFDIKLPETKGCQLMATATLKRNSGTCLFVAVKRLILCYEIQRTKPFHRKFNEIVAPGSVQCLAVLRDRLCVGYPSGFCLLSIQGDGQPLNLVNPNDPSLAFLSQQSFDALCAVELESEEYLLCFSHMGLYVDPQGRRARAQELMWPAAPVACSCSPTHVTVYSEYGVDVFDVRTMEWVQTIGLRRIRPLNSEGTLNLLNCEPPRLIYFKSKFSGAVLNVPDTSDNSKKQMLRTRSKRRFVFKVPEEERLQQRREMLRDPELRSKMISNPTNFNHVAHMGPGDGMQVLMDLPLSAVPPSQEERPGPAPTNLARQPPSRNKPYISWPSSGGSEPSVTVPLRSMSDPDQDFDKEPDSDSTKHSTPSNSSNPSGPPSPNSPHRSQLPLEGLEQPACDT

The compound `COCC(=O)NC/C=C/c1ccc2ncnc(Nc3ccc(Oc4ccc(C)nc4)c(C)c3)c2c1` [CP-724714] came in with a % of control in experiment [1] of 100%. `N#Cc1cccc(-c2c[nH]c3ncnc(N4CCOCC4)c23)c1`: the % of control in experiment [2] worked out at 74%. The compound `CC(=O)c1cc(-c2ccccc2OCC2CC2)c2ncccn12` showed a % of control in [3] of 35%. In turn, `CCN(CC)CCCCNc1ncc2cc(-c3cc(OC)cc(OC)c3)c(NC(=O)NC(C)(C)C)nc2n1` gave a % of control in experiment [4] of 100%. In experiment [5], `CNC(=O)Nc1ccc(-c2nc(N3CC4CCC(C3)O4)c3cnn(C4CCC5(CC4)OCCO5)c3n2)cc1` displayed a % of control of 80%. Also, the % of inhibition in experiment [6] stood at 1%; in experiment [7], 4%. As for `C=CC(=O)Nc1cc(-n2c(=O)ccc3cnc4ccc(-c5ccc(NS(C)(=O)=O)cc5)cc4c32)ccc1C`, the % of control in [8] (at 1 µM) was found to be 100%; in [8] (at 10 µM), 66%. As to `C=CC(=O)Nc1cccc(C(=O)Nc2ccc(Nc3cc(-c4[nH]c(SC)nc4C)ccn3)cc2)c1`, the % of control turned out to be 23% in [9] (at 1 µM) and 6% in [9] (at 5 µM). `CN(C)C/C=C/C(=O)Nc1ccc(C(=O)N2CCCC(Nc3ncc(Cl)c(-c4c[nH]c5ccccc45)n3)C2)cc1` (stereo not given) came in with a % of control in [10] of 78%. `CN(C)CCOc1ccc(-c2nc(-c3ccncc3)c(-c3ccc4c(c3)CC/C4=N\O)[nH]2)cc1`: the % of control in experiment [11] came to 89%. Turning to `C=CC(=O)Nc1ccc(C(=O)Nc2[nH]nc3c2CN(C(=O)N[C@H](CN(C)C)c2ccccc2)C3(C)C)cc1`, the % of engagement was 3.1% in experiment [12] and -21.9% in experiment [13].

Source of the values: ChEMBL document CHEMBL5465560, “Selectivity Literature for EUbOPEN Chemogenomic Library” (2024).
